Results: patent US20230263825A1, “ANTI-CANCER ACTIVITY OF PERBORATE SALTS” (priority 2020, published 2023)
Values after ≈ are worked out from the molar mass of the structure shown.

Tests used:
[1] = system: PSN-1 (a pancreatic adenocarcinoma cell line); assay: MTS cytotoxicity assay, single agents and combinations; assay type: cell-based; settings: Homo sapiens, PSN1, PSN-1, chemotherapeutic agent alone; read-out: EC50 concentration
Procedure: (§1) An MTS reduction (MTS (3-(4,5-dimethylthiazol-2-yl)-5-(3-carboxymethoxyphenyl)-2-(4-sulfophenyl)-2H-tetrazolium) assay) was conducted to analyze the cytotoxic effect of sodium perborate tetrahydrate on lung, chordoma and pancreatic cells and normal cells. In this method, cell viability is determined via the activity of mitochondrial dehydrogenase enzyme, which reduces the tetrazolium dye MTS to its […] formazan (absorbance maximum of 490 nm in PBS).
(§2) Cells were counted and seeded in 96-well culture dishes. […] The positive control comprised 20% Dimethyl Sulfoxide and the negative control comprised complete growth media. Seeding densities were as follows: DMS114: 20.000 cells/well; MRC5: 5.000 cells/well; CH22: 2.000 cells/well; JHC7, UM-Chor1, MUG-Chor1, UCH1 and NPH: 5.000 cells/well; PSN1: 10.000 cells/well; BxPC3 and ASPC: 7.500 cells/well. The effect of sodium perborate tetrahydrate on cell viability was measured as follows. The cell culture medium was discarded and 100 μl of MTS solution (10% glucose solution and 1% MTS-PMS solution in PBS) was added into each well. After 1 hour incubation in a humidified incubator, an absorbance reading was taken to determine mitochondrial dehydrogenase activity and cell survival was calculated relative to the negative control.

[2] = system: DMS114 cells (small cell lung cancer cells); assay: MTS cytotoxicity assay; assay type: cell-based; settings: DMS114
Procedure: as §1, §2

## O=c1[nH]cc(F)c(=O)[nH]1 [5-Fluorouracil, reference compound]
[1]
  EC50: 13 µM

## OB(O)O [boric acid, reference compound]
[2]; Homo sapiens, DMS-114, read-out: EC50 (dose that kills 50% of cells)
  EC50: 1000 µg/mL (≈ 16.2 mM)

## sodium pentaborate pentahydrate [reference compound]
[2]
  EC50 (dose that kills 50% of cells): 1,250 μg/mL
